The nature of data set [1]: Aluminum release in simulated gastrointestinal fluids. The class given is physicochemical.
The nature of data set [2]: Thickness of paste layer on mucus-coated cellulose nitrate membrane. How it is done:
Five hundred milligrams of AF-LuCI (excess) was added onto mucus-coated cellulose nitrate membrane (disk shape with 2 cm diameter) and DDW (pH 5.5), SGF (pH 1.0), or SIF (pH 6.5) was added immediately. After AF-LuCI becomes a paste and flow to form a layer (3-5 minutes), supernatant was removed and the paste-coated membrane was quickly frozen in −80° C. freezer to measure the thickness. The thickness of the mucus-coated cellulose nitrate membrane without AF-LuCI was separately measured as a baseline.

The nature of data set [3]: Glucose barrier test on mucin-coated membrane in Franz cell. Also noted: species or system porcine. As to the method:
To examine the barrier properties of pastes formed from the new hydratable compositions in vitro, a mucin-coated membrane was prepared to mimic the mucus surface of the intestine. Specifically, a cellulose nitrate membrane (pore size: 0.2 μm, Whatman, Germany) was incubated in a 3% w/v porcine stomach mucin (SigmaAldrich, USA) solution in PBS (pH 7.4) and gently shaken for 2 hours at room temperature. The membrane was washed with distilled deionized water (DDW, pH 5.5) to remove the excess mucin solution. The mucin-coated membranes were used within 1 hour following preparation.
To measure the thickness of the mucin layer, the mucin-coated membrane was lyophilized and imaged using scanning electron microscope (SEM) and the thickness of randomly selected positions was examined (average mucin layer thickness: ˜100 μm). To test the nutrient barrier properties, 10 mg of sucralfate or AF-LuCI was added evenly to a mucin-coated membrane and vertically tilted for 1 minute. […]
The permeation tests were performed in triplicate for each material. The glucose concentration was measured using high performance liquid chromatography (HPLC, Agilent, USA) with an analytical C18 column (Zorbax Eclipse XDB-C18, Agilent). […]

The nature of data set [4]: Degree of polymerization of PAC by titration. The class given is physicochemical. The conditions noted are these: native sucralfate. As to the method:
Experiments were performed to determine the degree of polymerization in AF-LuCI by using the titration-based methods as described in Nail, S. L., White, J. L. & Hem, S. L. Structure of Aluminum Hydroxide Gel I: Initial Precipitate. Journal of Pharmaceutical Sciences 65, 1188-1191 (1976); and Hem, J. D. & Roberson, C. E. Form and stability of aluminum hydroxide complexes in dilute solution. Geol Surv Water-Supply Pap(US)(United States) (1967). The degree of polymerization of PACs in AF-LuCI and sucralfate molecule was determined using titration method based on the reversible protonation of hydroxo linkages in the PAC backbone. Approximately 10 mg of AF-LuCI were treated with 0.1N, 0.2N, 0.3N, 0.4N and 0.5N HCl solutions in different tubes. The samples were vortexed for 5 seconds followed by 1-hour incubation. The supernatant of each sample was then collected and the pH was measured using a pH meter. The same procedures were performed with sucralfate. The pH of the HCl solutions was measured as the control group and the difference between the control and the treated groups was calculated. The difference in pH corresponds to the proton consumption and the amount of hydroxo linkages that were then used to calculate the number of aluminum per molecule.

A short description of data set [5]: Dissolution in NaCl solutions. Format: physicochemical. The conditions noted are these: saturated NaCl solutions (~0.35 g/ml in water). An excerpt:
[…] This is a characteristic behavior of liquid complex coacervate system (See Wang, Q. & Schlenoff, J. B. The Polyelectrolyte Complex/Coacervate Continuum. Macromolecules 47, 3108-3116 (2014); de Kruif, C. G., Weinbreck, F. & de Vries, R. Complex coacervation of proteins and anionic polysaccharides. Current Opinion in Colloid & Interface Science 9, 340-349 (2004); Veis, A. & Aranyi, C. PHASE SEPARATION IN POLYELECTROLYTE SYSTEMS. I. COMPLEX COACERVATES OF GELATIN. J. Phys. Chem. 64, 1203-1210 (1960)).

The test system of a further data set is Sprague-Dawley (SD) rats. The experiment in a line: microCT imaging of coating in the GI tract after gavage. The class given is in vivo. The conditions noted are these: gavage into the stomach, AF-LuCI 450 mg/kg rat, imaged after 1 hr. As to the method: Sprague-Dawley (SD) rats were gavaged into the stomach with hydrated AF-LuCI pastes and imaged using micro-computed tomography (microCT). AF-LuCI pastes could be visualized on gastro-intestinal tissues without additional contrast agents owing to the presence of aluminum. For these experiments, rats were fasted overnight and gavaged directly into the stomach with 450 mg/kg rat of AF-LuCI paste hydrated in 0.9 w/v % normal saline solution. After 1 hr and 5 hr, the rats were anesthetized using isoflurane and imaged using microCT. […] FIG. 18A is a coronal plane view of SD rats gavaged with AF-LuCI 1 hr before the imaging. AF-LuCI formed a layer in stomach, duodenum and proximal intestine. FIGS. 18B and 18C are 3-dimensional views of SD rats gavaged with AF-LuCI (FIG. 18B) 1 hr and (FIG. 18C) 5 hr before the microCT imaging. AF-LuCI is attached on stomach, duodenum and proximal intestine at least for 5 hrs after gavage while sucralfate only formed sparsely scattered aggregates on the healthy mucosa

Data set [6] has as its system normal Sprague-Dawley (SD) rats. Description: OGTT with sucralfate. Format: in vivo, rat. An excerpt:
In contrast, sucralfate selectively binds to ulcerated mucosa where the bicarbonate secretion is malfunctioned (i.e. acidic), while on bicarbonate-neutralized healthy mucosa sucralfate forms loosely bound discrete solid aggregates attached on the surface rather than forming a continuous layer. […] The neutralized pH on mucus surfaces also compromised the barrier function of sucralfate due to the change of rheological properties.

For data set [7] the following is noted: native sucralfate, USP specification; cited from earlier work.

As to sucralfate, the “release of original aluminum content” value in data set [1] (exposed to an acidic fluid, e.g. gastric fluid, for AF-LuCI relative to the aluminum content of commercial sucralfate) was “about 15.0 w/w %”. For the same substance, the release of aluminum in data set [1] (simulated gastric fluid (SGF, pH 1.0)) is 15 w/w % of total aluminum content. For the same substance, the thickness of layer in data set [2] (SGF (pH 1.0)) is recorded as around 250 μm. For the same substance, in data set [2] (distilled water or SIF), the layer formation result was “did not form any layer”. The substance further had a glucose penetration blocked in data set [3] (SGF, 10 mg on membrane, 120 g/L glucose, 5 minutes) of around 60%. In data set [3] (applied on mucus-coated membrane in pH 1.0, then solution of pH 4.0 added), the glucose blocked is 16.5%. Besides, the “number of aluminum ions per molecule (degree of polymerization of PAC)” value in data set [4] is on record as 56.1±3.0 aluminum per molecule. Further, in data set [5], the fraction dissolved entry is on record as “Less than 5 w/w %”. Besides, in the data set on Sprague-Dawley (SD) rats, the “layer formation in the GI tract (microCT)” value is recorded as “did not form a layer”. The “area under curve (AUC) in OGTT versus saline treated group” value in data set [6] is reported as “no significant difference”. For the same substance, the “USP regulation on the aluminum content” value in data set [7] is given as 15.5-18.5 w/w % of the total weight.

Source of the values: US11666597B2, “Water-activated mucoadhesive compositions to reduce intestinal absorption of nutrients” (The Brigham and Women's Hospital, Inc., priority 2015, dated 2023).
